Assays:
L. braziliensis = assay: Inhibition of growth of L. braziliensis in THP-1 macrophages; assay type: cell-based; conditions: Leishmania braziliensis
Text: 1 In Vitro Antileishmanial Potency, Selectivity Index, and ADME Properties of Compounds 1 – 6 | column: L. braziliensis IC50 (μM)^b (SI)^b

L. infantum = assay: Antileishmanial activity against L. infantum amastigotes in THP-1 macrophages; assay type: cell-based; conditions: Leishmania infantum; growth of L. infantum in THP-1 macrophages, 72 h
Protocol: The in vitro anti-L. infantum activity (IC50) of each compound was evaluated on THP-1 cells (human leukemia monocytic cell line) infected with L. infantum promastigotes, and the in vitro cytotoxicity (CC50) was determined over the THP-1 cell line. The selectivity index (SI) was calculated as the ratio of the CC50 value determined in the cytotoxicity assay, divided by the IC50 value determined in the antileishmanial activity assay.
Cells derived from the human monocytic strain THP-1 were cultured in complete Rowell Park Memorial Institute (RPMI)-1640 medium (supplemented with 10% fetal bovine serum, 100 U/mL penicillin, and 100 μg/mL streptomycin). Monocytes were differentiated into macrophages by the addition of 20 ng/mL phorbol myristate acetate (PMA). After 72 h, the macrophages (5 × 10^4), in black 96-well microtiter plates (Corning Incorporated, Corning, NY), were infected with Leishmania (Leishmania) infantum (MHOM/BR/1974/PP75) promastigotes transfected with gene tdTomato, on the second day of the stationary phase (20 parasites per macrophage) for 4 h. […] The IC50 values were determined by nonlinear regression using a variable slope model (log(concentration) vs growth inhibition) with the GraphPadPrism v8.2.0 (CA, USA) software. Controls with uninfected cells, untreated infected cells, and infected cells treated with amphotericin B at 0.25 μM (positive control) or DMSO 1% were used. Quadruplicates were run on the same plate, and the experiments were repeated at least once.

[1] = PAMPA gastrointestinal tract permeability; assay type: in vitro ADME; conditions: for Papp at 8 h, 0.5 mM: PAMPA-GI, read-out: GI Pe
Protocol: A 10 mM solution of each compound in DMSO was prepared and subsequently homogenized in a 5 mL flask with 4.75 mL PBS (pH 6.6) (10 mM). […] 180 μL of a PBS (pH 7.4)/DMSO (95:5) solution were then added to the wells of a 96-well receiver plate, and 5 μL of a L-α-phosphatidylcholine solution (20 mg/mL in dodecane) to the wells of a 96-well donor plate. After 5 min, 180 μL of the solutions containing each compound were added to the wells of the donor plate, in triplicate, and the donor plate was carefully placed over the receiver plate in a “sandwich-like” system, which was left stirring (50 rpm) for 8 h at rt in a sealed vessel containing 10 mL PBS (pH 7.4). Afterward, the donor plate was removed, and the content of the receiver plate was transferred to a UV reading plate, which was read using a microplate reader (SpectraMax 5 – Molecular Devices). A reference sample for the internal correction of the microplate reader was prepared using 180 μL of the PBS (pH 7.4)/DMSO (95:5) solution (adapted from refs and ). The optical density values obtained from the content of the receiver plate were compared with the ones obtained from readings performed with the initial solutions containing each compound, before their addition to the donor plate. […] The optical density values from the receptor plate were compared to those from experimental controls to determine the F a value for each compound, using Microsoft Excel.

[2] = PAMPA blood-brain barrier permeability; assay type: in vitro ADME; conditions: for BBB permeation class: PAMPA-BBB classification; for Papp at 0.2 mg/mL: PAMPA-BBB, pH 7.4, read-out: BBB Pe
Protocol: One mg of each compound was solubilized in ethanol (1 mL) in a 5 mL flask, and an additional 500 μL ethanol and 3.5 mL PBS buffer (pH 7.4) were added to this solution. […] 180 μL of a PBS (pH 7.4)/ethanol (70:30) solution were then added to the wells of a 96-well receiver plate, and 5 μL of a porcine brain lipid solution (20 mg/mL in dodecane) to the wells of a 96-well donor plate. […] Afterward, the donor plate was removed, and the content of the receiver plate was transferred to a UV reading plate, which was read using a microplate reader (SpectraMax 5 – Molecular Devices). A reference sample for the internal correction of the microplate reader was prepared using 180 μL of the PBS (pH 7.4)/ethanol (70:30) solution (adapted from ref ). The optical density values obtained from the content of the receiver plate were compared with the ones obtained from readings performed with the initial solutions containing each compound, before their addition to the donor plate. […] The optical density values for the experimental controls were used to determine the equation of the linear regression (optical density vs P e ), which allowed the determination of the P e value of each compound from the optical density values obtained from the receiver plate, using an in-house Microsoft Excel spreadsheet.

[3] = Metabolic stability in mouse liver microsomes; assay type: in vitro ADME; conditions: pH 7.4, MLM, with NADPH cofactor; for microsomal CLint at 5 μM: read-out: Clint, intrinsic clearance; for half-life at 5 μM: read-out: t1/2, microsomal half-life
Protocol: To a microcentrifuge tube was added 1 mg/mL Mouse Liver Microsome (MLM), a NADPH generating system consisting of 1 mM NADP+, 1.5 mM MgCl2, 3.5 mM glucose-6-phosphate and 0.5 U/mL glucose-6-phosphate dehydrogenase, and phosphate buffer (pH 7.4) in a sufficient amount for a total volume of […]. After a 15 min preincubation at 37 °C in a water bath, the enzymatic reactions were started by adding 2 μL of a […] stock solution of each compound to be assessed, reaching a final concentration of 5 μM in the tested compound. , The samples were further incubated at 37 °C under stirring (30 rpm) for predetermined periods (0, 15, 30, 45, and 60 min), and 500 μL chilled MeOH and 500 μL chilled acetonitrile were added before the samples were homogenized and left standing in an ice bath to accelerate protein precipitation. The resulting mixture was centrifugated at 13000 rpm for 15 min at 4 °C, the organic layer was extracted and 2 μL internal standard (clonazepam 5 μM) was added. Finally, the samples were filtered through a PVDF filter (Millex 0.22 μm x 13 mm) and analyzed by HPLC-PDA. ,

[4] = tested on: L. infantum promastigotes; assay: Flow cytometric cell cycle analysis (PI); assay type: cell-based, Leishmania infantum; conditions: 24 h, 0.5x, 1x, 2x IC50, PI
Protocol: Then, the cells were collected, washed twice with 1 × PBS, and fixed in 70% ethanol at 4 °C for 24 h. The fixed parasites were then washed with 1 × PBS and the pellet was treated with 500 μL of RNase A (20 mg/mL) and incubated at 37 °C for 1 h. Subsequently, the parasites were stained with 10 μg/mL propidium iodide (PI) in the dark for 20 min. Cell cycle distribution, determining the percentage of cells in G0, G1, S, and G2/M phases, was analyzed using an Accuri C5 BD flow cytometer. The histograms presented are representative of results obtained from three independent experiments.

[5] = tested on: L. infantum::tdTomato intracellular amastigotes; assay: Synergism between 2 and Sb^III against intracellular L. infantum amastigotes; assay type: cell-based, Leishmania infantum; conditions: compounds tested separately, 72 h; read-out: IC50 against intracellular amastigotes of L. infantum
Protocol: Cells derived from the human monocytic strain THP-1 were cultured in complete Rowell Park Memorial Institute (RPMI)-1640 medium (supplemented with 10% fetal bovine serum, 100 U/mL penicillin, and 100 μg/mL streptomycin). Monocytes were differentiated into macrophages by the addition of 20 ng/mL phorbol myristate acetate (PMA). After 72 h, the macrophages (5 × 10^4), in black 96-well microtiter plates (Corning Incorporated, Corning, NY), were infected with Leishmania (Leishmania) infantum (MHOM/BR/1974/PP75) promastigotes expressing red fluorescence protein on the second day of the stationary phase (20 parasites per macrophage) for 4 h. […] To investigate the possibility of synergism between Sb^III and compound 2, […] different concentrations of these drugs were used (1.0, 0.5, 0.2, 0.1, and 0.05 μg/mL), the solutions of Sb^III and 2 being prepared and diluted the day of the assay. The compounds were tested separately and in combination. […] The EC50 values were determined by nonlinear regression using a Variable slope model (log(concentration) vs growth inhibition) with the GraphPadPrism v8.2.0 (CA, USA) software. By normalizing the data as a fractional response, it was possible to perform the calculation using a Bayesian model. The results were compared to each other to determine whether the combination of compounds has a synergistic, antagonistic or additive effect. Controls with uninfected cells, untreated infected cells, infected cells treated with amphotericin B at 0.25 μM (positive control) or DMSO 1% were used. Quadruplicates were run on the same plate, and the experiments were repeated at least once.

L. infantum::tdTomato = assay type: in vivo, mouse; conditions: 500 mg/kg/day i.p., 10 days
Protocol: BALB/c mice (male, 6 to 8 weeks old, 18 to 20 g) were inoculated intravenously (tail vein) with 2 × 10^7 late-log-phase L. infantum promastigotes from Li::tdTomato lines, and randomly assigned into one of the four treatment groups (six mice per group). After 7 days of infection, […] was administered intraperitoneally in a single dose 500 mg/kg/day meglumine antimoniate (Glucantime, Sanofi Medley), both groups treated with 2 received two daily intraperitoneal injections totaling either 50 mg/kg/day or 100 mg/kg/day of 2, and the control group was administered the vehicle solution. For the intraperitoneal injection, 2 was formulated as follows: a stock solution of 2 in DMSO (100 mg/mL) was prepared daily, and a solution of 70% PBS1X, 20% PEG 400 (Polyethylene Glycol 400, Sigma-Aldrich), 0.16% Tween 80 and 10% of 2 (from the stock solution) was prepared. The control group was also administered this solution, replacing 2 with 10% DMSO. All mice were euthanized 3 days after the end of the treatment, and the liver and spleen of each animal were collected.
The number of viable parasites in each organ was determined using a quantitative limiting dilution assay. Briefly, the organs were macerated using an Ultra-Turrax disperser (IKA-Werke GmbH & Co. KG., Staufen, Germany), and a tissue homogenate was obtained with 1 mL of M199 medium. Each tissue homogenate was sequentially diluted (10-fold) in 96-well flat-bottom microtiter black plates and incubated at 26 °C for 10 days. The wells containing motile promastigotes were identified with an inverted microscope (Axiovert 25, Zeiss), and the parasite burden was determined from the highest dilution at which promastigotes had grown after 10 days of incubation.

C[C@@H]1[C@H](O)[C@@H](C)/C=C/C=C/C=C/C=C/C=C/C=C/C=C/[C@H](O[C@@H]2O[C@H](C)[C@@H](O)[C@H](N)[C@@H]2O)C[C@@H]2O[C@](O)(C[C@@H](O)C[C@@H](O)[C@H](O)CC[C@@H](O)C[C@@H](O)CC(=O)O[C@H]1C)C[C@H](O)[C@H]2C(=O)O [AmB, Amphotericin B, reference compound]
IC50 (L. braziliensis): 100 nM | IC50 (L. infantum): 300 nM

CC(C)NCC(O)COc1ccc(CC(N)=O)cc1 (stereo not drawn) [Atenolol, reference compound]
Fa, fraction absorbed (GI) [1]: 1.70%

COc1ccc(C(=O)N2CCN(c3cnccn3)CC2)cc1 [Compound 3, (4-Methoxyphenyl)(4-(pyrazin-2-yl)piperazin-1-yl)methanone]
IC50 (L. braziliensis): 10100 ± 2800 nM | IC50 (L. infantum): 4500 ± 700 nM | Fa, fraction absorbed (GI) [1]: 99.90% | Papp at 8 h, 0.5 mM [1]: 18.2 ×10⁻⁶ cm/s | BBB permeation class [2]: CNS± (CNS±: uncertain BBB permeation, 2.0 < P e (10^–6 cm/s) < 4.0) | Papp at 0.2 mg/mL [2]: 2.21 ×10⁻⁶ cm/s | microsomal CLint at 5 μM [3]: 0.925 µL/min/mg | half-life at 5 μM [3]: 3.12 h

Nc1ccc(C(=O)N2CCN(c3cnccn3)CC2)cn1 [Compound 4, (6-Aminopyridin-3-yl)(4-(pyrazin-2-yl)piperazin-1-yl)methanone]
IC50 (L. braziliensis): 11900 ± 1100 nM | IC50 (L. infantum): 5100 ± 2100 nM | Fa, fraction absorbed (GI) [1]: 99.91% | Papp at 8 h, 0.5 mM [1]: 18.4 ×10⁻⁶ cm/s | Papp at 0.2 mg/mL [2]: 1.02 ×10⁻⁶ cm/s | microsomal CLint at 5 μM [3]: 0.675 µL/min/mg | half-life at 5 μM [3]: 4.28 h

O=C(c1ccc2cc(O)ccc2c1)N1CCN(c2cnccn2)CC1 [Compound 5, (6-Hydroxynaphthalen-2-yl)(4-(pyrazin-2-yl)piperazin-1-yl)methanone]
IC50 (L. braziliensis): 2600 ± 200 nM | IC50 (L. infantum): 3300 ± 2700 nM | Fa, fraction absorbed (GI) [1]: 45.70% | Papp at 8 h, 0.5 mM [1]: 1.61 ×10⁻⁶ cm/s | Papp at 0.2 mg/mL [2]: 0.96 ×10⁻⁶ cm/s | microsomal CLint at 5 μM [3]: 0.8 µL/min/mg | half-life at 5 μM [3]: 3.61 h

O=C(c1cccc(O)c1O)N1CCN(c2cnccn2)CC1 [Compound 6, (2,3-Dihydroxyphenyl)(4-(pyrazin-2-yl)piperazin-1-yl)methanone]
IC50 (L. braziliensis): 200 ± 200 nM | IC50 (L. infantum): 2800 ± 1100 nM | Fa, fraction absorbed (GI) [1]: 86.26% | Papp at 8 h, 0.5 mM [1]: 5.22 ×10⁻⁶ cm/s | BBB permeation class [2]: CNS+ (CNS+: high BBB permeation, P e (10^–6 cm/s) > 4.0) | Papp at 0.2 mg/mL [2]: 4.51 ×10⁻⁶ cm/s | microsomal CLint at 5 μM [3]: 4.2 µL/min/mg | half-life at 5 μM [3]: 0.688 h

CCCCCCCCCCCCCCCCOP(=O)([O-])OCC[N+](C)(C)C [Miltefosine, miltefosine, reference compound]
effect on cell cycle progression [4]: same pattern of cell cycle arrest

[Sb+3] [Sb^III, reference compound]
IC50 [5]: 2400 ± 470 nM

meglumine antimoniate [reference compound]
parasite burden in spleen and liver (L. infantum::tdTomato): almost completely eradicated
